In BindingDB's records for doi:10.1074/jbc.M113.510743 (Max Planck Institute of Biophysics, 2014):

Biological target: T1, APC family lysine-specific permease (Salmonella typhimurium (strain LT2 / SGSC1412 / ATCC 700720), UniProt Q8ZNK9)
T1 sequence (Q8ZNK9 whole entry): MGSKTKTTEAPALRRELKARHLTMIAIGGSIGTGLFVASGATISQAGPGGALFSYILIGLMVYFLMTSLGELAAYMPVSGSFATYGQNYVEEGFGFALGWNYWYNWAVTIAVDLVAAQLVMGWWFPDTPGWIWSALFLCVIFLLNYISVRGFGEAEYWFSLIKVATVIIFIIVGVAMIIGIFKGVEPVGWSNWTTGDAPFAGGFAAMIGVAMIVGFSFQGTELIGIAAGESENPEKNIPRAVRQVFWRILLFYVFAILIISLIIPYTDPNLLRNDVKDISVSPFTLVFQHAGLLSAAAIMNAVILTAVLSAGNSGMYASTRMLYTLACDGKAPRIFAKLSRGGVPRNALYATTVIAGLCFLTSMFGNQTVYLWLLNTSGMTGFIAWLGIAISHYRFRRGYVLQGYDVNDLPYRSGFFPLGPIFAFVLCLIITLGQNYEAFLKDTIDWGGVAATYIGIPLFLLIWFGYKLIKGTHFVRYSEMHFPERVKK
Test: Isothermal Titration Calorimetry (ITC)
Conditions: pH 5.9; 20 °C
Method: ITC measurements were carried out at 20 °C with a VP-ITC calorimeter (GE Healthcare, MicroCal, Inc.) consisting of a 1.45-ml reaction cell. STM2200 in 20 mM MES-NaOH, 150 mM NaCl, 0.025% (w/v) β-DDM, pH 5.9 at concentrations ranging between 15 and 30 μM was titrated with ligands under conditions where the sum of the ionic strengths of ligand and NaCl was always 150 mM. After an initial 4-μl injection, all subsequent ligand additions consisted of 5 μl every 240-300 s. Stirring was at 307 rpm.

SMILES	Kd [µM]
NCCCC[C@@H](N)C(=O)O [(2R)-2,6-diaminohexanoic acid]	1800
NCCCC[C@H](N)C(=O)O [(2S)-2,6-diaminohexanoic acid]	40
